Laboratory results published in PMC6315173, “Characterization of the Apelin/Elabela Receptors (APLNR) in Chickens, Turtles, and Zebrafish: Identification of a Novel Apelin-Specific Receptor in Teleosts” (Frontiers in Endocrinology, 2018).
Residues, ends and D or L forms follow the SMILES beside them.

Key:
[1] = target: T1, zebrafish APLNR2a (zfAPLNR2a) (Danio rerio, UniProt Q7SZP9); assay: pGL3-CRE-luciferase reporter assay, HEK293 cells expressing zebrafish APLNR2a; type: cell-based; conditions: SEM
T1 construct: the open reading frame (ORF) of each APLNR was amplified from the animal; expressed in transfected cells; host or cells: HEK293
T1 sequence (Q7SZP9 1-362): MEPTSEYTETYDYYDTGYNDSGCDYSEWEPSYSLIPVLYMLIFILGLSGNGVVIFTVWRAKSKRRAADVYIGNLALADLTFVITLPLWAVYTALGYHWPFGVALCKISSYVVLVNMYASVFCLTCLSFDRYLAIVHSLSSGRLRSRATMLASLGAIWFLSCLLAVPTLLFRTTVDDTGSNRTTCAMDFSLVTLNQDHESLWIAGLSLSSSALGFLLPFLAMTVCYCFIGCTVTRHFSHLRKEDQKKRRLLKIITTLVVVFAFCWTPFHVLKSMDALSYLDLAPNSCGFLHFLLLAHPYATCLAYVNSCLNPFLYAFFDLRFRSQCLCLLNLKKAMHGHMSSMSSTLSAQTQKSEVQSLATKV
Description: (§1) In brief, HEK293 cells were cultured on a six-well plate and grown for 24 h before transfection. The cells were then transfected with a mixture containing 700 ng pGL3-CRE-Luciferase reporter construct (or pGL4-SRE-Luciferase reporter construct), 200 ng of receptor expression plasmid [or empty pcDNA3.1(+) vector as a negative control], and 2 μl jetPRIME (Polyplus Transfection, Illkirch, France) in 200 μl buffer. Twenty-four hour later, HEK293 cells were sub-cultured into a 96-well plate at 37°C for an additional 24 h before treatment. After removal of medium from the 96-well plate, the cells were treated with 100 μl peptide-containing medium (or peptide-free medium) for 6 h in the presence or absence of forskolin (5 μM). Finally, HEK293 cells were lysed with 1 × passive lysis buffer for luciferase assay (Promega, Madison, WI, USA) and the luciferase activity of the cell lysate was measured by a Multimode microplate Reader (TriStar LB 941, EG&G Berthold, Germany) according to the manufacturer's instruction.
(§2) The luciferase activity in each treatment group was expressed as the relative fold changes as compared with their respective control groups. The data were analyzed by non-linear regression followed by one-way ANOVA using GraphPad Prism 5 (GraphPad, San Diego, CA, USA). To validate the results, all experiments were repeated at least twice.

[2] = target: T2, zebrafish APLNR2b (zfAPLNR2b) (Danio rerio, UniProt A0T2N3); assay: pGL3-CRE-luciferase reporter assay, HEK293 cells expressing zebrafish APLNR2b; type: cell-based; conditions: SEM
T2 construct: the open reading frame (ORF) of each APLNR was amplified from the animal; expressed in transfected cells; host or cells: HEK293
T2 sequence (A0T2N3 1-359): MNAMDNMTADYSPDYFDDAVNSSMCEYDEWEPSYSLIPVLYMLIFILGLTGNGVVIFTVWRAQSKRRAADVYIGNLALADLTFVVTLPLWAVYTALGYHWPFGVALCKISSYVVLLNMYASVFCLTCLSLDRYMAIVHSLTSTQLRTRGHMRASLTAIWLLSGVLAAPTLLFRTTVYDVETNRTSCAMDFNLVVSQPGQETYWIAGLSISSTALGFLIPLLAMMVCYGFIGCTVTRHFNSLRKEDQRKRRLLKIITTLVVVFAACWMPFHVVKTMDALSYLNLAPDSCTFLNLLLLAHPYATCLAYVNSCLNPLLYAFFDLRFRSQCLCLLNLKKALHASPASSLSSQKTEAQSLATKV
Description: as §1, §2

[3] = test system: zebrafish APLNR3a (zfAPLNR3a); assay: pGL3-CRE-luciferase reporter assay, HEK293 cells expressing zebrafish APLNR3a; type: cell-based, zebrafish (Danio rerio); conditions: HEK293 cells transiently expressing zfAPLNR3a; inhibition of forskolin (5 μM)-stimulated pGL3-CRE-luciferase activity; 6 h; mean ± S.E. of 3 independent experiments; N = EC50 cannot be evaluated
Description: as §1, §2

[4] = test system: tilapia APLNR3b (tiAPLNR3b); assay: pGL3-CRE-luciferase reporter assay, HEK293 cells expressing tilapia APLNR3b; type: cell-based, Nile tilapia (Oreochromis niloticus); conditions: HEK293 cells transiently expressing tiAPLNR3b; inhibition of forskolin (5 μM)-stimulated pGL3-CRE-luciferase activity; 6 h; mean ± S.E. of 3 independent experiments; N = EC50 cannot be evaluated
Description: as §1, §2

zebrafish APLNR2a = target: T3, zebrafish APLNR2a (Danio rerio, UniProt Q7SZP9); assay: Western blot of ERK1/2 phosphorylation, HEK293 cells expressing zebrafish APLNR2a; type: cell-based; conditions: 100 nM, duplicates, time-dependent (5, 10, 20 min)
T3 construct: the open reading frame (ORF) of each APLNR was amplified from the animal; expressed in transfected cells; host or cells: HEK293
T3 sequence (Q7SZP9 1-362): T1 sequence (Q7SZP9 1-362)
Description: HEK293 cells cultured in a 60-mm culture dish (Nunc, Rochester, NY, USA) with 70% confluence were transfected by 1 μg of receptor expression plasmid using jetPRIME reagent according to manufacturers' instruction (Polyplus Transfection, Illkirch, France). […] These cells were washed with cold PBS and lysed by RIPA Lysis Buffer (Roche, Basel, Switzerland) on ice. Western blot was used to examine ERK1/2 phosphorylation and β-actin levels in cell lysates.

zebrafish APLNR3a = assay: Western blot of ERK1/2 phosphorylation, HEK293 cells expressing zebrafish APLNR3a; type: cell-based, zebrafish (Danio rerio)
Description: HEK293 cells cultured in a 60-mm culture dish (Nunc, Rochester, NY, USA) with 70% confluence were transfected by 1 μg of receptor expression plasmid using jetPRIME reagent according to manufacturers' instruction (Polyplus Transfection, Illkirch, France). After the 24-h transfection, HEK293 cells were sub-cultured into a 24-well plate, serum-deprived for 12 h and then treated by peptides for 10 min. These cells were washed with cold PBS and lysed by RIPA Lysis Buffer (Roche, Basel, Switzerland) on ice. Western blot was used to examine ERK1/2 phosphorylation and β-actin levels in cell lysates.

SMILES: CC(C)C[C@H](NC(=O)[C@H](CC(N)=O)NC(=O)[C@H](CC(C)C)NC(=O)[C@H](Cc1ccccc1)NC(=O)[C@H](CC(=O)O)NC(=O)[C@H](Cc1c[nH]cn1)NC(=O)[C@H](CCCCN)NC(=O)[C@@H](NC(=O)CNC(=O)[C@H](Cc1c[nH]cn1)NC(=O)[C@H](CCCCN)NC(=O)[C@@H](N)CC(=O)O)[C@@H](C)O)C(=O)N[C@@H](CCCNC(=N)N)C(=O)N[C@@H](CCCNC(=N)N)C(=O)N[C@@H](CCCCN)C(=O)N[C@@H](Cc1ccc(O)cc1)C(=O)N[C@@H](CCCNC(=N)N)C(=O)N[C@@H](CCCNC(=N)N)C(=O)N[C@@H](Cc1c[nH]cn1)C(=O)N[C@@H](CC(N)=O)C(=O)N[C@@H](CS)C(=O)N1CCC[C@H]1C(=O)N[C@@H](CCCCN)C(=O)N[C@@H](CCCCN)C(=O)N[C@@H](CCCNC(=N)N)C(=O)N[C@@H](CS)C(=O)N[C@@H](CC(C)C)C(=O)N1CCC[C@H]1C(=O)N[C@@H](CC(C)C)C(=O)N[C@@H](Cc1c[nH]cn1)C(=O)N[C@@H](CO)C(=O)N[C@@H](CCCNC(=N)N)C(=O)N[C@H](C(=O)N1CCC[C@H]1C(=O)N[C@@H](Cc1ccccc1)C(=O)N1CCC[C@H]1C(=O)O)C(C)C [zfELA-36] (H-DKHGTKHDFLNLRRKYRRHNCPKKRCLPLHSRVPFP-OH; N-terminus and C-terminus assumed)
- EC50 [1]: 1.61 ± 0.8 nM
- EC50 [2]: 1.29 ± 0.9 nM
- EC50 [3]: > 100 nM
- EC50 [4]: > 100 nM
- phosphorylation of ERK1/2, Western blot (zebrafish APLNR2a): can enhance phosphorylation of ERK1/2
- ERK1/2 phosphorylation, Western blot (zebrafish APLNR3a): not ELA-36
